system: HCT-116; test: Cytotoxicity against human HCT-116 cells assessed as reduction in cell viability incubated for 96 hrs by MTT assay; type: functional, cell-based; settings: HCT-116, 96 h

`C[C@H]1[C@@H](OCCc2cn(COc3cc(=O)oc4ccccc34)nn2)O[C@@H]2O[C@@]3(C)CC[C@H]4[C@H](C)CC[C@@H]1[C@@]24OO3` and `Cc1cccc2c(OCn3cc(CCO[C@H]4O[C@@H]5O[C@@]6(C)CC[C@H]7[C@H](C)CC[C@@H]([C@H]4C)[C@@]57OO6)nn3)cc(=O)oc12` cannot be ordered by IC50: > 100000 nM for the first, > 100000 nM for the second.

Compared with `Cc1ccc2c(OCn3cc(CCO[C@H]4O[C@@H]5O[C@@]6(C)CC[C@H]7[C@H](C)CC[C@@H]([C@H]4C)[C@@]57OO6)nn3)cc(=O)oc2c1C`, `Cc1ccc2c(OCn3cc(CCCO[C@H]4O[C@@H]5O[C@@]6(C)CC[C@H]7[C@H](C)CC[C@@H]([C@H]4C)[C@@]57OO6)nn3)cc(=O)oc2c1C` is lower in IC50: > 100000 nM for the first, 39 nM for the second.

`Cc1cc(C)c2c(OCn3cc(CCO[C@H]4O[C@@H]5O[C@@]6(C)CC[C@H]7[C@H](C)CC[C@@H]([C@H]4C)[C@@]57OO6)nn3)cc(=O)oc2c1` and `Cc1cc(C)c2oc(=O)cc(OCn3cc(CCO[C@H]4O[C@@H]5O[C@@]6(C)CC[C@H]7[C@H](C)CC[C@@H]([C@H]4C)[C@@]57OO6)nn3)c2c1` cannot be ordered by IC50: > 100000 nM for the first, > 100000 nM for the second.

`Cc1cccc2c(OCn3cc(CCCO[C@H]4O[C@@H]5O[C@@]6(C)CC[C@H]7[C@H](C)CC[C@@H]([C@H]4C)[C@@]57OO6)nn3)cc(=O)oc12` and `Cc1cc(C)c2oc(=O)cc(OCn3cc(CCCO[C@H]4O[C@@H]5O[C@@]6(C)CC[C@H]7[C@H](C)CC[C@@H]([C@H]4C)[C@@]57OO6)nn3)c2c1` are the same in IC50: 39 nM for the first, 39 nM for the second.

system: MDA-MB-231; test: Antiproliferative activity against human MDA-MB-231 cells assessed as cell growth inhibition incubated for 96 hrs by MTT assay; type: functional, cell-based; settings: MDA-MB-231, 96 h

`Cc1ccc2c(OCn3cc(CCCO[C@H]4O[C@@H]5O[C@@]6(C)CC[C@H]7[C@H](C)CC[C@@H]([C@H]4C)[C@@]57OO6)nn3)cc(=O)oc2c1C` and `Cc1cccc2c(OCn3cc(CCCO[C@H]4O[C@@H]5O[C@@]6(C)CC[C@H]7[C@H](C)CC[C@@H]([C@H]4C)[C@@]57OO6)nn3)cc(=O)oc12` are the same in IC50: 39 nM for the first, 39 nM for the second.

With `Cc1cc(C)c2oc(=O)cc(OCn3cc(CCCO[C@H]4O[C@@H]5O[C@@]6(C)CC[C@H]7[C@H](C)CC[C@@H]([C@H]4C)[C@@]57OO6)nn3)c2c1` the IC50 was 39 nM.

system: HT-29; test: Cytotoxicity against human HT-29 cells assessed as reduction in cell viability by MTT assay; type: functional, cell-based; settings: not given

Going from `C[C@H]1[C@@H](OCc2cn(CCCOc3ccc4c(C(F)(F)F)cc(=O)oc4c3)nn2)O[C@@H]2O[C@@]3(C)CC[C@H]4[C@H](C)CC[C@@H]1[C@@]24OO3` to `C[C@H]1[C@@H](OCc2cn(CCOc3ccc4c(C(F)(F)F)cc(=O)oc4c3)nn2)O[C@@H]2O[C@@]3(C)CC[C@H]4[C@H](C)CC[C@@H]1[C@@]24OO3`, the IC50 falls from 1220 nM to 50 nM (24-fold). The second is the more potent here.

Compared with `CCOC(=O)c1cc2ccc(OCCn3cc(CO[C@H]4O[C@@H]5O[C@@]6(C)CC[C@H]7[C@H](C)CC[C@@H]([C@H]4C)[C@@]57OO6)nn3)cc2oc1=O`, `CCOC(=O)c1cc2ccc(OCCCn3cc(CO[C@H]4O[C@@H]5O[C@@]6(C)CC[C@H]7[C@H](C)CC[C@@H]([C@H]4C)[C@@]57OO6)nn3)cc2oc1=O` is 24-fold higher in IC50: 50 nM for the first, 1220 nM for the second. The first is the more potent here.

First: Cc1c(Cl)c(=O)oc2cc(OCCn3cc(CO[C@H]4O[C@@H]5O[C@@]6(C)CC[C@H]7[C@H](C)CC[C@@H]([C@H]4C)[C@@]57OO6)nn3)ccc12
Second: Cc1c(Cl)c(=O)oc2cc(OCCCn3cc(CO[C@H]4O[C@@H]5O[C@@]6(C)CC[C@H]7[C@H](C)CC[C@@H]([C@H]4C)[C@@]57OO6)nn3)ccc12
The IC50 of the first is 24-fold lower: 50 nM for the first, 1220 nM for the second. The first is the more potent here.

Going from `CCOC(=O)c1cc2ccc(OCn3cc(CCO[C@H]4O[C@@H]5O[C@@]6(C)CC[C@H]7[C@H](C)CC[C@@H]([C@H]4C)[C@@]57OO6)nn3)cc2oc1=O` to `CCOC(=O)c1cc2ccc(OCn3cc(CCCO[C@H]4O[C@@H]5O[C@@]6(C)CC[C@H]7[C@H](C)CC[C@@H]([C@H]4C)[C@@]57OO6)nn3)cc2oc1=O`, the IC50 rises from 2460 nM to > 100000 nM. The first is the more potent here.

Compared with `Cc1c(C)c2ccc(OCn3cc(CCO[C@H]4O[C@@H]5O[C@@]6(C)CC[C@H]7[C@H](C)CC[C@@H]([C@H]4C)[C@@]57OO6)nn3)cc2oc1=O`, `Cc1c(C)c2ccc(OCn3cc(CCCO[C@H]4O[C@@H]5O[C@@]6(C)CC[C@H]7[C@H](C)CC[C@@H]([C@H]4C)[C@@]57OO6)nn3)cc2oc1=O` is higher in IC50: 2460 nM for the first, > 100000 nM for the second.

Compared with `C[C@H]1[C@@H](OCCc2cn(COc3ccc4c(C(F)(F)F)cc(=O)oc4c3)nn2)O[C@@H]2O[C@@]3(C)CC[C@H]4[C@H](C)CC[C@@H]1[C@@]24OO3`, `C[C@H]1[C@@H](OCCCc2cn(COc3ccc4c(C(F)(F)F)cc(=O)oc4c3)nn2)O[C@@H]2O[C@@]3(C)CC[C@H]4[C@H](C)CC[C@@H]1[C@@]24OO3` is higher in IC50: 2460 nM for the first, > 100000 nM for the second.

First: Cc1c(Cl)c(=O)oc2cc(OCn3cc(CCO[C@H]4O[C@@H]5O[C@@]6(C)CC[C@H]7[C@H](C)CC[C@@H]([C@H]4C)[C@@]57OO6)nn3)ccc12
Second: Cc1c(Cl)c(=O)oc2cc(OCn3cc(CCCO[C@H]4O[C@@H]5O[C@@]6(C)CC[C@H]7[C@H](C)CC[C@@H]([C@H]4C)[C@@]57OO6)nn3)ccc12
The IC50 of the first is lower: 2460 nM for the first, > 100000 nM for the second.

First: Cc1cc(=O)oc2cc(OCn3cc(CCCO[C@H]4O[C@@H]5O[C@@]6(C)CC[C@H]7[C@H](C)CC[C@@H]([C@H]4C)[C@@]57OO6)nn3)ccc12
Second: Cc1cc(=O)oc2cc(OCn3cc(CCO[C@H]4O[C@@H]5O[C@@]6(C)CC[C@H]7[C@H](C)CC[C@@H]([C@H]4C)[C@@]57OO6)nn3)ccc12
The IC50 of the first is higher: > 100000 nM for the first, 2460 nM for the second.

First: Cc1c(C)c2ccc(OCCn3cc(CO[C@H]4O[C@@H]5O[C@@]6(C)CC[C@H]7[C@H](C)CC[C@@H]([C@H]4C)[C@@]57OO6)nn3)cc2oc1=O
Second: Cc1c(C)c2ccc(OCCCn3cc(CO[C@H]4O[C@@H]5O[C@@]6(C)CC[C@H]7[C@H](C)CC[C@@H]([C@H]4C)[C@@]57OO6)nn3)cc2oc1=O
The IC50 of the first is 24-fold lower: 50 nM for the first, 1220 nM for the second.

Compared with `Cc1cc(=O)oc2cc(OCCCn3cc(CO[C@H]4O[C@@H]5O[C@@]6(C)CC[C@H]7[C@H](C)CC[C@@H]([C@H]4C)[C@@]57OO6)nn3)ccc12`, `Cc1cc(=O)oc2cc(OCCn3cc(CO[C@H]4O[C@@H]5O[C@@]6(C)CC[C@H]7[C@H](C)CC[C@@H]([C@H]4C)[C@@]57OO6)nn3)ccc12` is 24-fold lower in IC50: 1220 nM for the first, 50 nM for the second. The second is the more potent here.

system: MDA-MB-231; test: Cytotoxicity against human MDA-MB-231 cells assessed as cell growth inhibition measured after 48 hrs by SRB assay; type: functional, cell-based; settings: MDA-MB-231, 48 h

`Cc1ccc2oc(=O)cc(Cn3cc(CO[C@H]4O[C@@H]5O[C@@]6(C)CC[C@H]7[C@H](C)CC[C@@H]([C@H]4C)[C@@]57OO6)nn3)c2c1` and `Cc1ccc2c(Cn3cc(CO[C@H]4O[C@@H]5O[C@@]6(C)CC[C@H]7[C@H](C)CC[C@@H]([C@H]4C)[C@@]57OO6)nn3)cc(=O)oc2c1` cannot be ordered by IC50: > 100000 nM for the first, > 100000 nM for the second.

`C[C@H]1[C@@H](OCc2cn(Cc3cc(=O)oc4cc(O)ccc34)nn2)O[C@@H]2O[C@@]3(C)CC[C@H]4[C@H](C)CC[C@@H]1[C@@]24OO3` and `C[C@H]1[C@@H](OCCc2cn(Cc3cc(=O)oc4cc(O)ccc34)nn2)O[C@@H]2O[C@@]3(C)CC[C@H]4[C@H](C)CC[C@@H]1[C@@]24OO3` cannot be ordered by IC50: > 100000 nM for the first, > 100000 nM for the second.

`Cc1ccc2oc(=O)cc(Cn3cc(CCO[C@H]4O[C@@H]5O[C@@]6(C)CC[C@H]7[C@H](C)CC[C@@H]([C@H]4C)[C@@]57OO6)nn3)c2c1` and `Cc1ccc2c(Cn3cc(CCO[C@H]4O[C@@H]5O[C@@]6(C)CC[C@H]7[C@H](C)CC[C@@H]([C@H]4C)[C@@]57OO6)nn3)cc(=O)oc2c1` cannot be ordered by IC50: > 100000 nM for the first, > 100000 nM for the second.

`Cc1cc(C)c2c(Cn3cc(CCO[C@H]4O[C@@H]5O[C@@]6(C)CC[C@H]7[C@H](C)CC[C@@H]([C@H]4C)[C@@]57OO6)nn3)cc(=O)oc2c1` and `Cc1cc(C)c2c(Cn3cc(CO[C@H]4O[C@@H]5O[C@@]6(C)CC[C@H]7[C@H](C)CC[C@@H]([C@H]4C)[C@@]57OO6)nn3)cc(=O)oc2c1` cannot be ordered by IC50: > 100000 nM for the first, > 100000 nM for the second.

Reference: ChEMBL document CHEMBL5357036, “Latest developments in coumarin-based anticancer agents: mechanism of action and structure-activity relationship studies” (RSC Med Chem, 2024)
